Two compounds from ChEMBL document CHEMBL3217504, “Potent growth inhibitory activity of ()-platencin towards multi-drug-resistant and extensively drug-resistant Mycobacterium tuberculosis” (2013) can be followed below.

≈ marks a conversion by molar mass, not a printed value. A value given as a limit tells only on which side of the number the result lay.

What all share (assay type): functional
Test [1] concerns Mycolicibacterium smegmatis. The experiment in a line: Selectivity ratio of MIC for Mycobacterium smegmatis ICHO1018 overexpressing KasB to MIC for wild-type Mycobacterium smegmatis MC2 155.
The subject of test [2] is Mycolicibacterium smegmatis. Put plainly: Antimycobacterial activity against Mycobacterium smegmatis ICHO1019 overexpressing FabH.
Test [3] concerns Mycolicibacterium smegmatis. Put plainly: Antimycobacterial activity against Mycobacterium smegmatis ICHO1018 overexpressing KasB.
Test [4] relates to Mycolicibacterium smegmatis. The experiment in a line: Antimycobacterial activity against Mycobacterium smegmatis ICHO1017 overexpressing KasA.
Test [5] has as its system Mycolicibacterium smegmatis. The experiment in a line: Antimycobacterial activity against Mycobacterium smegmatis ICHO1001 harboring pMV261.
In test [6] the test system is Mycolicibacterium smegmatis. Put plainly: Antimycobacterial activity against wild-type Mycobacterium smegmatis MC2 155. The settings on record: str. MC2 155.
Test [7] relates to Mycobacterium tuberculosis. Put plainly: Ratio of MBC99.9 to MIC for Mycobacterium tuberculosis LV54.
Test [8] deals with Mycobacterium tuberculosis. Put plainly: Ratio of MBC99.9 to MIC for Mycobacterium tuberculosis H37Rv ATCC 27294.
Test [9] has as its system Mycobacterium tuberculosis. Put plainly: Antimycobacterial activity against Mycobacterium tuberculosis LV54 by microbroth dilution method.
For test [10], the system named is Mycobacterium tuberculosis. Put plainly: Antimycobacterial activity against Mycobacterium tuberculosis H37Rv ATCC 27294 by microbroth dilution method. (Dilution methods test growth across graded concentrations, often in twofold steps.)
In test [11] the test system is Mycolicibacterium smegmatis. The experiment in a line: Antimycobacterial activity against Mycobacterium smegmatis MC2 155 under hypoxic condition after 96 hrs. The settings on record: str. MC2 155, 96 h.
The subject of test [12] is Mycolicibacterium smegmatis. The experiment in a line: Antimycobacterial activity against Mycobacterium smegmatis MC2 155 under aerobic condition after 48 hrs by MTT assay. The settings on record: str. MC2 155, 48 h. (Tetrazolium assays rely on reduction of a dye to a coloured formazan, in cell work by metabolically active cells.)

By MIC is commonly meant the smallest concentration in the dilution series that meets the test's criterion for growth inhibition. A lower MIC goes with greater potency. For the compound `C=C1C[C@@]23C=CC(=O)[C@@](C)(CCC(=O)Nc4c(O)ccc(C(=O)O)c4O)[C@@H]2C[C@@H]1CC3` (racemic) [PLATENCIN], the Ratio was above 17 in test [1], above 64 in [7] and above 64 in test [8]. The MIC in test [2] was 1 µg/mL (≈ 2.35 µM); in test [3], above 8.5 µg/mL; in test [4], 1 µg/mL (≈ 2.35 µM); in test [5], 0.5 µg/mL (≈ 1.18 µM); in test [6] it was 0.5 µg/mL (≈ 1.18 µM); in test [9] it was 1 µg/mL (≈ 2.35 µM). The results for the MIC in [10], in test [11] and in test [12] were 2 µg/mL (≈ 4.7 µM), 0.3 µg/mL (≈ 0.705 µM) and 0.5 µg/mL (≈ 1.18 µM), respectively.
Consider `NNC(=O)c1ccncc1` [ISONIAZID], for which the minimal inhibitory concentration (MIC) in test [11] amounted to 25 µg/mL (≈ 182 µM); in test [12], 2.5 µg/mL (≈ 18.2 µM).
